Experimental data from US20240376547A1, “ONCOLOGIC VARIATIONS ASSOCIATED WITH CANCER AND METHODS OF TREATMENT” (LINNAEUS THERAPEUTICS, INC., priority 2021, published 2024).
Entries after “also recorded” stand apart in the source; their conditions may differ.

How the values were obtained:
[1] = system: EML4-ALK A549 NSCLC cells; assay: CCK-8 proliferation assay of parental and EML4-ALK A549 NSCLC cells; type: cell-based; details: EML4-ALK A549 cells compared with parental (control) A549 cells, 4 days treatment, 0.98-500 nM
Description: (§1) Parental cells and EML4-ALK A549 NSCLC cells (5,000 cells) were plated in a 96-well tissue culture plate. Cells were treated with an array of ½ dilutions of LNS8801 for 4 days with 4 technical replicates for each condition (500 nM, 250 nM, 125 nM, 62.5 nM, 31.25 nM, 15.83 nM, 7.81 nM, 3.91M, 1.95 nM, 0.98 nM and 0 nM). After 4 days, relative viable cells were determined by Incubating cells with CCK-8 proliferation dye for 1 hour and measuring absorbance at 450 nm. Relative cell numbers were calculated by subtracting baseline absorbance of the media followed by normalization to the 0 nM treated control wells.

[2] = system: Crizotinib resistant EML4-ALK A549 NSCLC cells; assay: CCK-8 proliferation assay of Crizotinib naive or resistant EML4-ALK A549 NSCLC cells; type: cell-based; details: 4 days treatment, normalized to 0 nM control
Description: as §1, with “Cells” for “Parental cells and EML4-ALK A549 NSCLC cells (5,000 cells) were plated in a 96-well tissue culture plate. Cells”, “[…]” for “½”, “15.63” for “15.83”, “3.91 nM,” for “3.91M,”, “incubating” for “Incubating”, “hour,” for “hour”
After 4 days, relative viable cells were determined by incubating cells with CCK-8 proliferation dye for 1 hour, and measuring absorbance at 450 nm. Relative cell numbers were calculated by subtracting baseline absorbance of the media followed by normalization to the 0 nM treated control wells.

With `CC(=O)c1ccc2c(c1)[C@@H]1C=CC[C@@H]1[C@H](c1cc3c(cc1Br)OCO3)N2` [LNS8801] the “cell viability (relative viable cells)” value [1] was “effectively reduced EML4-ALK A549 cell viability over control A549 cells; also recorded: ALK+ NSCLC cells are more sensitive to LNS8801 than isogenic controls” and the “relative viability of Crizotinib-resistant cells” value [2] was “able to effectively reduce viability; also recorded: has activity in the setting of ALK-inhibitor resistance”.
